Experiments:
[1] = UV absorption spectrum of the compound as a 5% dispersion in liquid petrolatum (total transmission and reflection, spectrophotometer with integrating sphere); type: physicochemical; conditions: 60 μm film
Method: The UV absorption spectrum of the compound was measured as a 5% dispersion in liquid petrolatum. The total transmission and reflection of the dispersion was determined on a 60 μm film with a spectrophotometer equipped with an integrating sphere.
The UV absorption spectrum of the compound was measured as a 5% dispersion in liquid petrolatum. The total transmission and reflection of the dispersion was determined on a 60 μm film with a spectrophotometer equipped with an integrating sphere (8 trials).

## N[C@@H](CCCCNC(=O)C=Cc1ccccc1)C(=O)O [Example 1, N^ε-cinnamoyl-L-lysine]
[1]
  absorption maximum: 260 nm
  shoulder (first shoulder): 305 nm
  optical density at 310 nm: 0.8
other
  melting point: > 260 °C

## COc1ccc(C=CC(=O)NCCCCC(N)C(=O)O)cc1 (centres unmarked) [Example 2]
[1]
  absorption maximum: 300 nm
  shoulder (first shoulder): 320 nm
  optical density at 310 nm: 0.4
other
  melting point: > 260 °C

From patent US6641802B2, “Amino acid compounds and photoprotecting compositions comprised thereof” (Societe L'Oreal S.A., priority 2000, dated 2003)
